Data reported in patent publication US20120157477A1, “REVERSAL OF L-DOPA-INDUCED DYSKINESIA BY NEURONAL NICOTINIC RECEPTOR LIGANDS” (TARGACEPT, INC., priority 2009, published 2012).
“Also recorded” adds a separate entry of the source.

Columns and labels:
[1] = test system: L-dopa-treated unilateral 6-hydroxydopamine-lesioned rats; assay: L-dopa-induced AIMs (dyskinesia) in unilateral 6-OHDA-lesioned rats; assay type: in vivo, rat
Experimental: The subtype selective NNR agonist Compound A, stimulates […] and to a lesser extent α6* NNRs. […] Experiments were performed using male Sprague-Dawley rats that were unilaterally lesioned with 6-OHDA (Sigma Chemical Co., St. Louis, Mo.) as previously described (Cenci et al., 1998; Cenci et al., 2002). 6-OHDA was dissolved in 0.02% ascorbic acid/saline at a concentration of 3 μg/μl. Compound A was systemically infused via osmotic minipumps (Alzet model 2006; Durect Corporation, Cupertino, Calif., USA), which delivered drug at a rate of 3.6 μl/day for 6 wk. […] Pumps were pre-filled with either sterilized water or Compound A base in water (pH 7.0) to provide the required doses (0.03, 0.1, 0.3 mg/kg/d). The minipumps were subcutaneously implanted along the dorsal aspect of the neck between the shoulder blades, according to the manufacturer's instruction, under isofluorane anesthesia. After implantation, rats were administered buprenorphine (0.02 mg/kg sc) for post-operative pain. Two weeks after initiation of drug treatment, the rats were administered single daily subcutaneous injections of 6 to 8 mg/kg L-dopa methyl ester plus 15 mg/kg benserazide. Two μl aliquots were stereotaxically injected at each of two sites for a total of 8 to 12 μg into the right ascending dopamine fiber bundle. Infusion of 6-OHDA into the target area was over a 2-min period, with the cannula maintained at the site of injection for a further 2 min. Two to three weeks after lesioning, rats were tested for drug-induced rotational behavior in an automated behavioral measurement apparatus (ROTOMAX, AccuScan Instruments Inc. Columbus, Ohio, USA). Each rat was placed in a cylindrical glass chamber for 30 min for acclimatization, after which 4.0 mg/kg amphetamine (Sigma Chemical Co., St. Louis, Mo.) was administered intraperitoneally (ip). Amphetamine-induced rotational behavior was monitored for 90 min, with rats making at least 200 ipsilateral turns/90 min used for further study.
L-dopa-induced AIMs were determined as indicated. See FIG. 1 for experiment dosing and testing regimen. Behavioral testing was done in the morning starting between 9 and 10 AM. Three different AIMs subtypes were measured including (1) axial dystonia, contralateral twisted posturing of the neck and upper body; (2) abnormal orolingual movements, stereotyped jaw movements and contralateral tongue protrusion; and (3) abnormal forelimb movements, repetitive rhythmic jerks or dystonic posturing of the contralateral forelimb and/or grabbing movements of the contralateral paw. See, for example, Carta M, Lindgren HS, Lundblad M, Stancampiano R, Fadda F, Cenci M A (2006), Role of Striatal L-DOPA in the Production of Dyskinesia in 6-hydroxydopamine Lesioned Rats. J Neurochem 96:1718-172; Cenci M A, Lee C S, Bjorklund A (1998) L-DOPA-induced dyskinesia in the rat is associated with striatal overexpression of prodynorphin- and glutamic acid decarboxylase mRNA; Eur J Neurosci 10:2694-2706; Cenci M A, Whishaw I Q, Schallert T (2002) Animal models of neurological deficits: how relevant is the rat? Nat Rev Neurosci 3:574-579; Bordia, T., Campos, C., Huang, L. Z. & Quik, M., “Continuous And Intermittent Nicotine Treatment Reduces L-3,4-Dihydroxyphenylalanine (L-Dopa)-Induced Dyskinesias In A Rat Model Of Parkinson's Disease,” J Pharmacol Exp Ther 327: 239-47 (2008)). Rats were scored on a scale from 0 to 4 for each of these three AIM subtypes as follows: 1=occasional; 2=frequent; 3=continuous but interrupted by sensory distraction; and 4=continuous, severe, not interrupted by sensory distraction. Animals were evaluated for AIMs for an initial 20 min baseline period, as well as for 3 h following L-dopa injection by a blinded rater. Assessment of the different subtypes of AIMs was done over 20 min sessions, thus yielding a total of 9 sessions of testing per animals. The maximum possible score for each animal was thus 108 (maximum score per session=12; number of sessions over 3 h=9). […]

Parkinsonian rats = assay: Limb use asymmetry (cylinder) test of motor function in Parkinsonian rats; assay type: in vivo, rat
Experimental: Because drugs that reduce AIMs may worsen Parkinsonism, the effect of Compound A (PD1) was also tested on motor function in Parkinsonian rats (see FIG. 3) using the limb use asymmetry or cylinder test. The cylinder test was used as an index of behavioral function after unilateral nigrostriatal damage, with explorative activity analyzed as previously described. Animals were placed in a transparent cylinder (20 cm diameter×30 cm height) or in a transparent cage and evaluated over a 5 min period. A mirror was placed behind the cylinder/cage to allow the raters to view forelimb movements when the rat was turned away from the rater. Wall exploration was expressed in terms of the percentage of use of the impaired forelimb (contralateral to the lesion) compared to the total number of limb use movements. Two raters, one blinded to the treatment status of the rats, performed the ratings. Correlation analyses yielded a high inter-rater reliability (R=0.99). […] The rat is placed in a transparent cylinder, which results in vertical exploration and the percentage of contact of the unimpaired and impaired forelimb against the cylinder evaluated (Cenci, M. A. and M. Lundblad, “Post-Versus Presynaptic Plasticity In L-Dopa-lnduced Dyskinesia,”. J Neurochem, 99: 381-392 (2006); Tillerson, J. L. et al., “Forced Limb-Use Effects On The Behavioral And Neurochemical Effects Of 6-Hydroxydopamine,” J Neurosci 21, 4427-35 (2001); and Meredith, G. E. & U. J. Kang, “Behavioral Models Of Parkinson's Disease In Rodents: A New Look At An Old Problem,” Mov Disord, 21: 1595-606 (2006).

rats = assay: Safety studies in rats; assay type: in vivo, rat
rodents = assay: Toxicological studies, rodents; assay type: in vivo
dogs = assay: Toxicological studies, dogs; assay type: in vivo
primates = assay: Toxicological studies, primates; assay type: in vivo
[2] = test system: Parkinsonian nonhuman primates; details: cited from earlier work
Parkinsonian rodents = details: cited from earlier work
[3] = 0.1 or 0.3 mg/kg/d via subcutaneous minipump

Compound	total AIMs ([1]; 0.1 mg/kg/day, second and third assessments)	total AIMs ([1]; 0.3 mg/kg/day, fourth assessment)	L-dopa-induced AIMs, total or some subset (axial, oral and/or forelimb) ([1]; 0.1 and 0.3 mg/kg/day, across multiple assessments, P<0.05 vs control (FIG. 2))	reduction in oral versus axial AIMs [1, 3]	reduction of total L-dopa-induced AIMs [1, 3]	total AIMs ([1]; first and fifth AIMs assessments)	adverse effects (body weight, body temperature, grooming, urination, defecation, secretion) ([1]; minipump treatment in the AIMs study)	Parkinsonism / motor function, trend (Parkinsonian rats; lesioned rats, either dose tested)	baseline motor function (Parkinsonian rats; off L-dopa, either dose tested, across the experiment)	enhanced limb use with L-dopa treatment (Parkinsonian rats; on L-dopa, either dose tested, across the experiment)	parkinsonism, asymmetric forelimb or cylinder test (FIG. 3) (Parkinsonian rats; two doses, Off or On L-dopa, several occasions)	detrimental effects (rats; acute free base oral doses up to 30 mg/kg)	behavioral sensitization (rats; rats)	locomotor activity (rats; rats)	incidence of peripheral side effects (rodents)	incidence of peripheral side effects (dogs)	incidence of peripheral side effects (primates)	reduction of L-dopa-induced dyskinetic-like movements [2]	reduction of L-dopa-induced dyskinetic-like movements (Parkinsonian rodents; Parkinsonian rodents)	L-dopa-induced AIMs (Parkinsonian rodents; rats, given continuously via osmotic minipump)
C(=C\[C@H]1CCNC1)/c1cncnc1 [Compound A, (R)-5-((E)-2-pyrrolidin-3-ylvinyl)pyrimidine]	significant decline in total AIMs	significant decline in total AIMs	reduce L-dopa-induced AIMs; also recorded: significant reduction	more pronounced reduction in oral than axial AIMs	~25%	trends for declines in total AIMs	no detectable adverse effects	small trend for improvement; also recorded: trend for improving Parkinsonism	does not worsen baseline motor function	nor does it worsen the enhanced limb use	do not worsen parkinsonism	not associated with any significant detrimental effects	no behavioral sensitization	did not increase locomotor activity	low incidence of peripheral side effects	low incidence of peripheral side effects	low incidence of peripheral side effects			
CN1CCCC1c1cccnc1 (centres unmarked) [nicotine]																		~50%	~50%	most effectively reduced L-dopa-induced AIMs
